Results: patent US20170240556A1, “BIFLUORODIOXALANE-AMINO-BENZIMIDAZOLE KINASE INHIBITORS FOR THE TREATMENT OF CANCER, AUTOIMMUNEINFLAMMATION AND CNS DISORDERS” (4SC DISCOVERY GMBH, priority 2012, published 2017)

Tests used:
[1] = target: Casein kinase 1 epsilon (CSKN1E) (Homo sapiens, UniProt P49674); assay: Casein kinase assay, CK1 epsilon; type: biochemical; conditions: recombinant CSKN1E 30 nM, ATP 10 μM
[2] = target: Casein kinase 1 delta (CSKN1D) (Homo sapiens, UniProt P48730); assay: Casein kinase assay, CK1 delta; type: biochemical; conditions: recombinant CSKN1D 5 nM, ATP 10 μM
Sequence of Casein kinase 1 delta (CSKN1D) (P48730 whole entry): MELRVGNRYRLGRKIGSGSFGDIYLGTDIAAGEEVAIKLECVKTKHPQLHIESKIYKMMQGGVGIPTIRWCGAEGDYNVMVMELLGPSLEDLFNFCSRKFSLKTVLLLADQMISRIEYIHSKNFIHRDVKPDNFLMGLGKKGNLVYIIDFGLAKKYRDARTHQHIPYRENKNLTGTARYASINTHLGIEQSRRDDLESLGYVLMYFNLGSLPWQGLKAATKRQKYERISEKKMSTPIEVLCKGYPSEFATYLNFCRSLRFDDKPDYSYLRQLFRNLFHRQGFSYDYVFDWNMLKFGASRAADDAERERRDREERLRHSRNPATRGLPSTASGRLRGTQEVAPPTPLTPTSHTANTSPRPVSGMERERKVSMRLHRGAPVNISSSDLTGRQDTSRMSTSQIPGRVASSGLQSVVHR

Sequence of Casein kinase 1 epsilon (CSKN1E) (P49674 whole entry): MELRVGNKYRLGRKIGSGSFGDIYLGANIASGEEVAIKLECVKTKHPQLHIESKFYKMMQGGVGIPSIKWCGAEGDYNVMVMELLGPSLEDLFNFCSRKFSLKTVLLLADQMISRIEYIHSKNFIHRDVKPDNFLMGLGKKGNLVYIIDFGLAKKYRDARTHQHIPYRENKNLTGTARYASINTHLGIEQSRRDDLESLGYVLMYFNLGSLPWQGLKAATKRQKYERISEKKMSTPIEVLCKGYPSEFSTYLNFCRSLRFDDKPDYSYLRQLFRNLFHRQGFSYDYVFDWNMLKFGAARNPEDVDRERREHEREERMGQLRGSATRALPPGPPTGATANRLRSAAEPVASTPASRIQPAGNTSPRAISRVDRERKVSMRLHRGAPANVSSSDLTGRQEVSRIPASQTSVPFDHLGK

SMILES | IC50 [1] [nM] | IC50 [2] [nM]
Nc1cccc(C(=O)Nc2nc3cc4c(cc3[nH]2)OC(F)(F)O4)c1 [Compound 87, 3-amino-N-(2,2-difluoro-5H-[1,3]dioxolo[4′,5′:4,5]benzo[1,2-d]imidazol-6-yl)benzamide] | 200 to 1000 | < 200
O=C(Nc1nc2cc3c(cc2[nH]1)OC(F)(F)O3)c1cc([N+](=O)[O-])c[nH]1 [Compound 88, N-(2,2-difluoro-5H-[1,3]dioxolo[4′,5′:4,5]benzo[1,2-d]imidazol-6-yl)-4-nitro-1H-pyrrole-2-carboxamide] | < 200 | < 200
Cc1ccc(C(=O)Nc2nc(C(=O)Nc3nc4cc5c(cc4[nH]3)OC(F)(F)O5)ns2)cc1 [Compound 89, N-(2,2-difluoro-5H-[1,3]dioxolo[4′,5′:4,5]benzo[1,2-d]imidazol-6-yl)-5-(4-methylbenzamido)-1,2,4-thiadiazole-3-carboxamide] | 200 to 1000 | 200 to 1000
COc1ccc(C(=O)Nc2nc(C(=O)Nc3nc4cc5c(cc4[nH]3)OC(F)(F)O5)ns2)cc1 [Compound 90, N-(2,2-difluoro-5H-[1,3]dioxolo[4′,5′:4,5]benzo[1,2-d]imidazol-6-yl)-5-(4-methoxybenzamido)-1,2,4-thiadiazole-3-carboxamide] | > 1000 | > 1000
O=C(Nc1nc(C(=O)Nc2nc3cc4c(cc3[nH]2)OC(F)(F)O4)ns1)c1ccc(Cl)cc1 [Compound 91] | < 200 | < 200
O=C(Nc1nc(C(=O)Nc2nc3cc4c(cc3[nH]2)OC(F)(F)O4)ns1)c1ccc(F)cc1 [Compound 92, N-(2,2-difluoro-5H-[1,3]dioxolo[4′,5′:4,5]benzo[1,2-d]imidazol-6-yl)-5-(4-fluorobenzamido)-1,2,4-thiadiazole-3-carboxamide] | < 200 | < 200
CC(=O)Nc1n[nH]c(C(=O)Nc2nc3cc4c(cc3[nH]2)OC(F)(F)O4)n1 [Compound 95, 3-acetamido-N-(2,2-difluoro-5H-[1,3]dioxolo[4′,5′:4,5]benzo[1,2-d]imidazol-6-yl)-1H-1,2,4-triazole-5-carboxamide] | > 1000 | > 1000
O=C(Nc1nc2cc3c(cc2[nH]1)OC(F)(F)O3)c1csc(C2CCN(c3ncnc4ccsc34)CC2)n1 [Compound 97, N-(2,2-difluoro-5H-[1,3]dioxolo[4′,5′:4,5]benzo[1,2-d]imidazol-6-yl)-2-(1-(thieno[3,2-d]pyrimidin-4-yl)piperidin-4-yl)thiazole-4-carboxamide] | 200 to 1000 | 200 to 1000
O=C(Nc1nc2cc3c(cc2[nH]1)OC(F)(F)O3)c1csc(-n2c(=O)n(CCN3CCOCC3)c3ccccc32)n1 [Compound 98, N-(2,2-difluoro-5H-[1,3]dioxolo[4′,5′:4,5]benzo[1,2-d]imidazol-6-yl)-2-(3-(2-morpholinoethyl)-2-oxo-2,3-dihydro-1H-benzo[d]imidazol-1-yl)thiazole-4-carboxamide] | > 1000 | 200 to 1000
COc1cc(Nc2ncc(C(=O)Nc3nc4cc5c(cc4[nH]3)OC(F)(F)O5)s2)nc(OC)n1 [Compound 99, N-(2,2-difluoro-5H-[1,3]dioxolo[4′,5′:4,5]benzo[1,2-d]imidazol-6-yl)-2-((2,6-dimethoxypyrimidin-4-yl)amino)thiazole-5-carboxamide] | > 1000 | > 1000
CC(=O)c1c[nH]c(C(=O)Nc2nc3cc4c(cc3[nH]2)OC(F)(F)O4)c1 [Compound 104, 4-acetyl-N-(2,2-difluoro-5H-[1,3]dioxolo[4′,5′:4,5]benzo[1,2-d]imidazol-6-yl)-1H-pyrrole-2-carboxamide] | < 200 | < 200
NC(=O)c1ccc(C(=O)Nc2nc3cc4c(cc3[nH]2)OC(F)(F)O4)cc1 [Compound 111, N^1-(2,2-difluoro-5H-[1,3]dioxolo[4′,5′:4,5]benzo[1,2-d]imidazol-6-yl)terephthalamide] | < 200 | < 200
O=C(Nc1nc2cc3c(cc2[nH]1)OC(F)(F)O3)c1ccc(S(=O)(=O)N2CCOCC2)cc1 [Compound 117, N-(2,2-difluoro-5H-[1,3]dioxolo[4′,5′:4,5]benzo[1,2-d]imidazol-6-yl)-4-(morpholinosulfonyl)benzamide] | < 200 | < 200
O=C(Nc1n[nH]c(C(=O)Nc2nc3cc4c(cc3[nH]2)OC(F)(F)O4)n1)c1ccc(Cl)cc1 [Compound 129, 3-(chlorobenzamido)-N-(2,2-difluoro-5H-[1,3]dioxolo[4′,5′:4,5]benzo[1,2-d]imidazol-6-yl)-1H-1,2,4-triazole-5-carboxamide] | > 1000 | 200 to 1000
COc1ccc2cc([C@H](C)C(=O)Nc3nc4cc5c(cc4[nH]3)OC(F)(F)O5)ccc2c1 [Compound 133, (S)-N-(2,2-difluoro-5H-[1,3]dioxolo[4′,5′:4,5]benzo[1,2-d]imidazol-6-yl)-2-(6-methoxymaphthalen-2-yl)propanamide] | < 200 | < 200
Cc1nnsc1-c1nc(C(=O)Nc2nc3cc4c(cc3[nH]2)OC(F)(F)O4)cs1 [Compound 134, N-(2,2-difluoro-5H-[1,3]dioxolo[4′,5′:4,5]benzo[1,2-d]imidazol-6-yl)-2-(4-methyl-1,2,3-thiadiazol-5-yl)thiazole-4-carboxamide] | < 200 | < 200
O=C(Nc1nc2cc3c(cc2[nH]1)OC(F)(F)O3)c1csc(-c2cscn2)n1 [Compound 135, N-(2,2-difluoro-5H-[1,3]dioxolo[4′,5′:4,5]benzo[1,2-d]imidazol-6-yl)-[2,4-bithiazole]-4-carboxamide] | < 200 | < 200
O=C(Nc1nc2cc3c(cc2[nH]1)OC(F)(F)O3)c1coc(-c2cccs2)n1 [Compound 136, N-(2,2-difluoro-5H-[1,3]dioxolo[4′,5′:4,5]benzo[1,2-d]imidazol-6-yl)-2-(thiophen-2-yl)oxazole-4-carboxamide] | 200 to 1000 | < 200
Cc1cc(-c2nc(C(=O)Nc3nc4cc5c(cc4[nH]3)OC(F)(F)O5)cs2)no1 [Compound 141, N-(2,2-difluoro-5H-[1,3]dioxolo[4′,5′:4,5]benzo[1,2-d]imidazol-6-yl)-2-(5-methylisoxazol-3-yl)thiazole-4-carboxamide] | < 200 | < 200
O=C(Nc1nc2cc3c(cc2[nH]1)OC(F)(F)O3)c1ccc(-n2cccn2)cc1 [Compound 142, N-(2,2-difluoro-5H-[1,3]dioxolo[4′,5′:4,5]benzo[1,2-d]imidazol-6-yl)-4-(1H-pyrazol-1-yl)benzamide] | > 1000 | < 200
O=C(Nc1nc2cc3c(cc2[nH]1)OC(F)(F)O3)c1cc(-c2ccco2)on1 [Compound 143, N-(2,2-difluoro-5H-[1,3]dioxolo[4′,5′:4,5]benzo[1,2-d]imidazol-6-yl)-5-(furan-2-yl)isoxazole-3-carboxamide] | 200 to 1000 | 200 to 1000
Cc1nn(C)cc1-c1cc(C(=O)Nc2nc3cc4c(cc3[nH]2)OC(F)(F)O4)no1 [Compound 144, N-(2,2-difluoro-5H-[1,3]dioxolo[4′,5′:4,5]benzo[1,2-d]imidazol-6-yl)-5-(1,3-dimethyl-1H-pyrazol-4-yl)isoxazole-3-carboxamide] | > 1000 | < 200
